We go through 52 molecules from the Kinase Knowledgebase extract (Sharma et al. 2016).

Sequence of PIK3CD (Human) (O00329 whole entry, looked up): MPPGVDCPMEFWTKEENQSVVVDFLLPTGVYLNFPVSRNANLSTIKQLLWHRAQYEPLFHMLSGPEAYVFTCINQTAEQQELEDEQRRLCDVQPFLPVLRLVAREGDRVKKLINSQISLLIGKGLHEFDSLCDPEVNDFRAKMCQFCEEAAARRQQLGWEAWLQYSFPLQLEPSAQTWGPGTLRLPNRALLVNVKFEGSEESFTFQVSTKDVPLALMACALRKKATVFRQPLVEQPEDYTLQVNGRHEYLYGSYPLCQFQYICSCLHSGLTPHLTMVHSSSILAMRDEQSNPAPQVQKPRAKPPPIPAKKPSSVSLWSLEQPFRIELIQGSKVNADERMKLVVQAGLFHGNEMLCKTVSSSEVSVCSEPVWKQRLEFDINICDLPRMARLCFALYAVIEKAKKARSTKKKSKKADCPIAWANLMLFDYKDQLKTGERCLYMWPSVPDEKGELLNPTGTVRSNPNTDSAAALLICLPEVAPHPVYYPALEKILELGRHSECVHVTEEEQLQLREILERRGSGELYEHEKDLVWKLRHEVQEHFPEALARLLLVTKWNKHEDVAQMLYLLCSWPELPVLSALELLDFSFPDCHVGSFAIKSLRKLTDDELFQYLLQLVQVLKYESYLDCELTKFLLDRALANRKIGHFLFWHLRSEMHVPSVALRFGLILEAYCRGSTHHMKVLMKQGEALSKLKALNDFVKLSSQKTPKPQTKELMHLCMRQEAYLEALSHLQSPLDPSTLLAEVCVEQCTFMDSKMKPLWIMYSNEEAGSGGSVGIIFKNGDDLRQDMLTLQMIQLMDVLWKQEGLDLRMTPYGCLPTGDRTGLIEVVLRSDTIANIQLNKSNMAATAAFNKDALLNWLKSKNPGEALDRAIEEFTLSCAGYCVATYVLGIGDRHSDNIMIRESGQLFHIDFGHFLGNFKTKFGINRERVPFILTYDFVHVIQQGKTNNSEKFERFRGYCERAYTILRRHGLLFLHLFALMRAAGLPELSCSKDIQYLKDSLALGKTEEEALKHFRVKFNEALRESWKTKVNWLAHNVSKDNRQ

This assay has as its target PIK3CD (Human) (UniProt O00329). Description: Inhibition of PIK3CD Kinase Activity.
Regarding `CCn1c(CN2CCN3CCC[C@H]3C2)nc2c(N3CCOCC3)nc(-c3cccc4[nH]ccc34)nc21`, the IC50 is less than 0.5 µM.

The molecule `CCn1c(CN2CCC(n3cccn3)CC2)nc2c(N3CCOCC3)nc(-c3c(F)ccc4[nH]ccc34)nc21` returned a half-inhibitory concentration (IC50) of less than 0.5 µM.

`c1cc(-c2nc(N3CCOCC3)c3nc(CN4CCN5CCOC[C@H]5C4)[nH]c3n2)c2cc[nH]c2c1` registered an IC50 of less than 0.5 µM.

`CCn1c(CN2CCC(N(C)S(C)(=O)=O)CC2)nc2c(N3CCOCC3)nc(-c3cccc4[nH]ccc34)nc21` gave an IC50 of less than 0.5 µM.

As for `CCn1c(CN2CC(NC(C)(C)C(N)=O)C2)nc2c(N3CCOCC3)nc(-c3cccc4[nH]ccc34)nc21`, the IC50 is less than 0.5 µM.

Turning to `CC(C)(C(N)=O)N1CCN(Cc2nc3c(N4CCOCC4)nc(-c4c(F)ccc5[nH]ccc45)nc3n2CCO)CC1`, the half-maximal inhibitory concentration (IC50) was less than 0.5 µM.

Molecule `CCn1c(CN2CCN(CC(N)=O)[C@@H](C(C)C)C2)nc2c(N3CCOCC3)nc(-c3cccc4[nH]ccc34)nc21` came in with an IC50 of less than 0.5 µM.

`CCn1c(CN2CCOC(C)(C)C2)nc2c(N3CCOCC3)nc(-c3cccc4[nH]ccc34)nc21` returned a 50% inhibitory concentration (IC50) of less than 0.5 µM.

As to `CCn1c(CN2CCC3(CC2)CNC(=O)C3)nc2c(N3CCOCC3)nc(-c3cccc4[nH]ccc34)nc21`, the half-maximal inhibitory concentration (IC50) is less than 0.5 µM.

In turn, `CCn1c(CN2CCC(N3CCOCC3=O)CC2)nc2c(N3CCOCC3)nc(-c3c(F)ccc4[nH]ccc34)nc21` came in with a half-maximal inhibitory concentration (IC50) of less than 0.5 µM.

In turn, `CC(C)(C(N)=O)N1CCN(Cc2nc3c(N4CCOCC4)nc(-c4cccc5[nH]ccc45)nc3[nH]2)CC1` had a half-inhibitory concentration (IC50) of less than 0.5 µM.

In turn, `CCn1c(CN2CCN(CC(N)=O)C(C)(C)C2)nc2c(N3CCOCC3)nc(-c3c(F)ccc4[nH]ccc34)nc21` displayed a half-maximal inhibitory concentration (IC50) of less than 0.5 µM.

Turning to `CCn1c(CN2CC[C@H](NC(C)(C)C(N)=O)C2)nc2c(N3CCOCC3)nc(-c3c(F)ccc4[nH]ccc34)nc21`, the IC50 is less than 0.5 µM.

`CCn1c(CN2CCC(N3CCC3=O)CC2)nc2c(N3CCOCC3)nc(-c3c(F)ccc4[nH]ccc34)nc21` yielded an IC50 of less than 0.5 µM.

As to `CCn1c(CN2CCC(C(N)=O)CC2)nc2c(N3CCOCC3)nc(-c3c(F)ccc4[nH]ccc34)nc21`, the IC50 was less than 0.5 µM.

As to `CCn1c(CN2CC(=O)NC(C)(C)C2)nc2c(N3CCOCC3)nc(-c3cccc4[nH]ccc34)nc21`, the IC50 was less than 0.5 µM.

Turning to `CCn1c(CN2CCN(CC(N)=O)C(C)(C)C2)nc2c(N3CCOCC3)nc(-c3cccc4[nH]ccc34)nc21`, the half-maximal inhibitory concentration (IC50) was less than 0.5 µM.

In turn, `CCn1c(CN2CCN(C3CCS(=O)(=O)CC3)CC2)nc2c(N3CCOCC3)nc(-c3cccc4[nH]ccc34)nc21` registered an IC50 of less than 0.5 µM.

`Cn1c(CN2CCN(C(C)(C)C(N)=O)CC2)nc2c(N3CCOCC3)nc(-c3c(F)ccc4[nH]ccc34)nc21`: the IC50 is less than 0.5 µM.

On to `CCn1c(CN2CCN3C(=O)COC[C@H]3C2)nc2c(N3CCOCC3)nc(-c3c(F)ccc4[nH]ccc34)nc21`, for which the IC50 was less than 0.5 µM.

For the molecule `CCn1c(CN2CCC(N3CCOCC3)CC2)nc2c(N3CCOCC3)nc(-c3cccc4[nH]ccc34)nc21`, the IC50 was less than 0.5 µM.

For `CCn1c(CN2CCC(c3cc[nH]n3)CC2)nc2c(N3CCOCC3)nc(-c3c(F)ccc4[nH]ccc34)nc21`, the concentration for half-maximal inhibition (IC50) was less than 0.5 µM.

In turn, `CCn1c(CN2CCC(c3cc[nH]n3)CC2)nc2c(N3CCOCC3)nc(-c3cccc4[nH]ccc34)nc21` showed a 50% inhibitory concentration (IC50) of less than 0.5 µM.

`CCn1c(CN2CCC(N(C)S(C)(=O)=O)CC2)nc2c(N3CCOCC3)nc(-c3c(F)ccc4[nH]ccc34)nc21` returned an IC50 of less than 0.5 µM.

Molecule `CCn1c(CN2CCC(N3CCC3)CC2)nc2c(N3CCOCC3)nc(-c3c(F)ccc4[nH]ccc34)nc21` yielded a concentration for half-maximal inhibition (IC50) of less than 0.5 µM.

`CCn1c(CN2C[C@@H](C)N(CC(N)=O)[C@@H](C)C2)nc2c(N3CCOCC3)nc(-c3c(F)ccc4[nH]ccc34)nc21` yielded a half-maximal inhibitory concentration (IC50) of less than 0.5 µM.

In turn, `CCn1c(CN2CCN(C(C)C)C(=O)C2)nc2c(N3CCOCC3)nc(-c3cccc4[nH]ccc34)nc21` yielded a half-maximal inhibitory concentration (IC50) of less than 0.5 µM.

In turn, `CCn1c(CN2CCC(N3CCOC3=O)CC2)nc2c(N3CCOCC3)nc(-c3c(F)ccc4[nH]ccc34)nc21` had an IC50 of less than 0.5 µM.

`CC(C)(C(N)=O)N1CCN(Cc2nc3c(N4CCOCC4)nc(-c4c(F)ccc5[nH]ccc45)nc3[nH]2)CC1` displayed an IC50 of less than 0.5 µM.

On to `CCn1c(CN2CCC(N3CC(F)C3)CC2)nc2c(N3CCOCC3)nc(-c3cccc4[nH]ccc34)nc21`, for which the IC50 is less than 0.5 µM.

As for `CCn1c(CN2CCC3(CC2)CNC(=O)C3)nc2c(N3CCOCC3)nc(-c3c(F)ccc4[nH]ccc34)nc21`, the IC50 is less than 0.5 µM.

`CCn1c(CN2CCN(CC(N)=O)[C@@H](C(C)C)C2)nc2c(N3CCOCC3)nc(-c3c(F)ccc4[nH]ccc34)nc21` came in with a half-maximal inhibitory concentration (IC50) of less than 0.5 µM.

As for `CCn1c(CN2CCC(N3CCOCC3=O)CC2)nc2c(N3CCOCC3)nc(-c3cccc4[nH]ccc34)nc21`, the IC50 was less than 0.5 µM.

`CCn1c(CN2CC3COCC(C2)N3)nc2c(N3CCOCC3)nc(-c3c(F)ccc4[nH]ccc34)nc21` came in with a concentration for half-maximal inhibition (IC50) of less than 0.5 µM.

On to `CCn1c(CN2CCC(n3cccn3)CC2)nc2c(N3CCOCC3)nc(-c3cccc4[nH]ccc34)nc21`, for which the IC50 was less than 0.5 µM.

For `CCn1c(CN2CCC(N(C)C)CC2)nc2c(N3CCOCC3)nc(-c3cccc4[nH]ccc34)nc21`, the half-inhibitory concentration (IC50) was less than 0.5 µM.

With `CCn1c(CN2CCC3(CCNC3=O)CC2)nc2c(N3CCOCC3)nc(-c3c(F)ccc4[nH]ccc34)nc21`, the IC50 is less than 0.5 µM.

As for `CCn1c(CN2CC(N3CCOCC3)C2)nc2c(N3CCOCC3)nc(-c3c(F)ccc4[nH]ccc34)nc21`, the IC50 was less than 0.5 µM.

Turning to `Cn1c(CN2CCN(C(C)(C)C(N)=O)CC2)nc2c(N3CCOCC3)nc(-c3cccc4[nH]ccc34)nc21`, the IC50 was less than 0.5 µM.

`CCn1c(CN2CCC(N3CCC3=O)CC2)nc2c(N3CCOCC3)nc(-c3cccc4[nH]ccc34)nc21` registered a half-inhibitory concentration (IC50) of less than 0.5 µM.

`CN(C)C1CCN(Cc2nc3c(N4CCOCC4)nc(-c4c(F)ccc5[nH]ccc45)nc3[nH]2)CC1` registered an IC50 of less than 0.5 µM.

On to `CCn1c(CN2CCC(N3CCCCC3=O)CC2)nc2c(N3CCOCC3)nc(-c3c(F)ccc4[nH]ccc34)nc21`, for which the IC50 was less than 0.5 µM.

In turn, `CCn1c(CN2CCN(CC(F)(F)F)CC2)nc2c(N3CCOCC3)nc(-c3c(F)ccc4[nH]ccc34)nc21` showed an IC50 of less than 0.5 µM.

On to `CCn1c(CN2CCN(C(C)(C)C(N)=O)CC2)nc2c(N3CCOCC3)nc(-c3c(F)ccc4[nH]ccc34)nc21`, for which the IC50 is less than 0.5 µM.

`CCn1c(CN2CCC(N3CCS(=O)(=O)CC3)CC2)nc2c(N3CCOCC3)nc(-c3cccc4[nH]ccc34)nc21` gave a 50% inhibitory concentration (IC50) of less than 0.5 µM.

In the case of `CCn1c(CN2CCC(C(=O)O)(N3CCOCC3)CC2)nc2c(N3CCOCC3)nc(-c3c(F)ccc4[nH]ccc34)nc21`, the IC50 was less than 0.5 µM.

Consider `CCn1c(CN2CCC3(CC2)CNC(=O)CO3)nc2c(N3CCOCC3)nc(-c3c(F)ccc4[nH]ccc34)nc21`, for which the IC50 is less than 0.5 µM.

The molecule `CCn1c(CN2CCN(C3CCS(=O)(=O)CC3)CC2)nc2c(N3CCOCC3)nc(-c3c(F)ccc4[nH]ccc34)nc21` had an IC50 of less than 0.5 µM.

As to `CCn1c(CN2CC(N3CCOCC3)C2)nc2c(N3CCOCC3)nc(-c3cccc4[nH]ccc34)nc21`, the IC50 was less than 0.5 µM.

Molecule `CCn1c(CN2CCN(C(C)C)C(=O)C2)nc2c(N3CCOCC3)nc(-c3c(F)ccc4[nH]ccc34)nc21` had an IC50 of less than 0.5 µM.

In turn, `CCn1c(CN2CCC(C(N)=O)(N3CCOCC3)CC2)nc2c(N3CCOCC3)nc(-c3cccc4[nH]ccc34)nc21` yielded a half-maximal inhibitory concentration (IC50) of less than 0.5 µM.

The molecule `CCn1c(CN2CCC(N3CCCCC3=O)CC2)nc2c(N3CCOCC3)nc(-c3cccc4[nH]ccc34)nc21` gave an IC50 of less than 0.5 µM.
